Here are results for 27 compounds from patent US9884863B2, “STAT3 inhibitor” (Board of Regents, The University of Texas System, priority 2013, dated 2018).

Each structure is given as a SMILES string. Read-outs that look alike come from different tables or passages of the source.

The test system of one data set is MDA-MB-231. In words: MTS cell proliferation assay, MDA-MB-231. In kind it is cell-based, human. To be noted: Homo sapiens, read-out: IC50 MDA-MB-231 (Table 1). On the procedure: (§1) Cancer cells (breast cancer cell lines MCF-7, MDA-MB-361, SKBR3 and MDA-MB-231, pancreatic cancer cell lines AsPC-1. BxPC3 and Panc-1) were seeded in 96-well plates at a density of 1000-2000 cells/well and treated with DMSO, 0.01, 0.1, 1, 5, 10, and 100 mM of STAT3 individual inhibitors for 72 hrs. Proliferation was measured by treating cells with the 3-(4,5-dimethylthiazol-2-yl)-5-(3-carboxymethoxyphenyl)-2-(4-sulfophenyl)-2H-tetrazolium) (MTS) in a CellTiter 96t AQueous Non-Radioactive Cell Proliferation Assay kit from Promega, Madison, Wis., USA). Absorbance of all wells was determined by measuring OD at 550 nm after 1 hr incubation at 37° C. on a 96-well iMark™ Microplate Absorbance Reader (BioRad, Hercules, Calif.).
In Vitro Determination of Effects of Synthesized Compounds on Cancer Cell Proliferation. Cancer cells (breast cancer cell lines MCF-7 and MDA-MB-231, pancreatic cancer cell lines AsPC-1 and Panc-1) were seeded in 96-well plates at a density of 2×10^3 cells/well and treated with DMSO, 0.01, 0.1, 1, 5, 10, and 100 μM of individual STAT3 inhibitors for 72 h. Proliferation was measured by treating cells with the 3-(4,5-dimethylthiazol-2-yl)-5-(3-carboxymethoxyphenyl)-2-(4-sulfophenyl)-2H-tetrazolium) (MTS) in a CellTiter 96t Aqueous Non-Radioactive Cell Proliferation Assay kit (Promega, Madison, Wis., USA). Absorbance of all wells was determined by measuring OD at 550 nm after 1 h incubation at 37° C. on a 96-well iMark™ Microplate Absorbance Reader (BioRad, Hercules, Calif.). Each individual compound was tested in quadruplicate wells for each concentration. […]

For another data set, the system named is MCF-7. Put plainly: MTS cell proliferation assay, MCF-7. In kind it is cell-based, human. The protocol: as §1, with “BxPC3 and Panc-1) were seeded in 96-well plates at a density of 1000-2000 cells/well and treated with DMSO, 0.01, 0.1, 1, 5, 10, and 100 mM of STAT3 individual inhibitors for 72 hrs.” left out, “Calif.). Each individual compound was tested in quadruplicate wells for each concentration, and the results were reported as mean absorption±s.e.” for “Calif.).”
In Vitro Determination of Effects of Synthesized Compounds on Cancer Cell Proliferation. Cancer cells (breast cancer cell lines MCF-7 and MDA-MB-231, pancreatic cancer cell lines AsPC-1 and Panc-1) were […], 0.01, 0.1, 1, 5, 10, […] Proliferation was measured by treating cells with the 3-(4,5-dimethylthiazol-2-yl)-5-(3-carboxymethoxyphenyl)-2-(4-sulfophenyl)-2H-tetrazolium) (MTS) in a CellTiter 96t Aqueous Non-Radioactive Cell Proliferation Assay kit (Promega, Madison, Wis., USA). Absorbance of all wells was determined by measuring OD at 550 nm after 1 h incubation at 37° C. on a 96-well iMark™ Microplate Absorbance Reader (BioRad, Hercules, Calif.). Each individual compound was tested in quadruplicate wells for each concentration.

The mark [1] stands for this setting: MDA-MB-231, ER-negative breast cancer, 72 hrs, >10 = no effect.
Where [2] appears, read: Homo sapiens, MCF7, 72 h; read-out: IC50 MCF-7 (Table 1).
[3] abbreviates: Homo sapiens, MCF7, 72 h, read-out: IC50 MCF-7 (Table 1).
Where [4] appears, read: MCF-7, 48 hr, μM concentrations.

As usually defined, the melting point is the temperature, or range, at which the solid turns liquid. In turn, `COc1cccc(/C=C(\C#N)C(=O)Nc2ccc3c(c2)S(=O)(=O)C=C3)c1` [RMF-1-35, 2-Cyano-N-(1,1-dioxo-1H-1λ^6-benzo[b]thiophen-6-yl)-3-(3-methoxyphenyl)acrylamide] yielded a melting point of 245 to 246 °C.

On to `COc1ncccc1/C=C(\C#N)C(=O)Nc1ccc2c(c1)S(=O)(=O)C=C2` [RMF-1-27, 2-Cyano-N-(1,1-dioxo-1H-1λ^6-benzo[b]thiophen-6-yl)-3-(2-methoxy-pyridin-3-yl)acrylamide], for which the melting point was 261 to 262 °C.

As for `N#C/C(=C\c1ccc(F)cc1)C(=O)Nc1ccc2c(c1)S(=O)(=O)C=C2` [RMF-1-29, 2-Cyano-N-(1,1-dioxo-1H-1λ^6-benzo[b]thiophen-6-yl)-3-(4-fluorophenyl)acrylamide], the melting point fell in the range of 271 to 272 °C.

In the case of `N#C/C(=C\c1c[nH]c2ncccc12)C(=O)Nc1ccc2c(c1)S(=O)(=O)C=C2` [RMF-1-17, 2-Cyano-N-(1,1-dioxo-1H-1λ^6-benzo[b]thiophen-6-yl)-3-(1H-pyrrolo[2,3-b]pyridin-3-yl)acrylamide], the melting point lay in the range of 300 to 301 °C.

For the compound `N#C/C(=C\c1cccc(Br)c1)C(=O)Nc1ccc2c(c1)S(=O)(=O)C=C2` [RMF-1-32, 3-(3-Bromophenyl)-2-cyano-N-(1,1-dioxo-1H-1λ^6-benzo[b]thiophen-6-yl)acrylamide], the melting point lay in the range of 250 to 251 °C.

`N#C/C(=C\c1ccc(O)cc1)C(=O)Nc1ccc2c(c1)S(=O)(=O)C=C2` [RMF-1-11, 2-Cyano-N-(1,1-dioxo-1H-1λ^6-benzo[b]thiophen-6-yl)-3-(4-hydroxyphenyl)acrylamide] registered a melting point of 306 to 307 °C.

In the case of `N#C/C(=C\c1ccccc1Cl)C(=O)Nc1ccc2c(c1)S(=O)(=O)C=C2` [RMF-1-33, 3-(2-Chlorophenyl)-2-cyano-N-(1,1-dioxo-1H-1λ^6-benzo[b]thiophen-6-yl)acrylamide], the melting point was 242 to 243 °C.

As for `N#C/C(=C\c1ccccc1O)C(=O)Nc1ccc2c(c1)S(=O)(=O)C=C2` [RMF-1-9, 2-Cyano-N-(1,1-dioxo-1H-1λ^6-benzo[b]thiophen-6-yl)-3-(2-hydroxyphenyl)acrylamide], the melting point was 284 to 285 °C.

Compound `N#C/C(=C\c1cccnc1)C(=O)Nc1ccc2c(c1)S(=O)(=O)C=C2` [RMF-1-22, 2-Cyano-N-(1,1-dioxo-1H-1λ^6-benzo[b]thiophen-6-yl)-3-pyridin-3-yl-acrylamide] had a melting point of 255 to 256 °C.

For the compound `N#C/C(=C\c1cccnc1F)C(=O)Nc1ccc2c(c1)S(=O)(=O)C=C2` [RMF-1-24, 2-Cyano-N-(1,1-dioxo-1H-1λ^6-benzo[b]thiophen-6-yl)-3-(2-fluoro-pyridin-3-yl)acrylamide], the melting point lay in the range of 262 to 263 °C.

Broadly, the IC50 is the concentration needed to halve the response being measured. With `CN1CCN(CCOc2ccc(Cl)cc2C(=O)Nc2ccc([N+](=O)[O-])cc2Cl)CC1` [HJC-3-65, 5-Chloro-N-(2-chloro-4-nitrophenyl)-2-[2-(4-methylpiperazin-1-yl)-ethoxy]benzamide], the concentration for half-maximal inhibition (IC50) with MDA-MB-231 (setting [1]) and in the data set with MCF-7 (setting [2]) was greater than 10 µM in each case.

For `COC1CS(=O)(=O)c2cc(NC(C)=O)ccc21` (centres unmarked) [HJC-1-63, N-(3-Methoxy-1,1-dioxo-2,3-dihydro-1H-1λ^6-benzo[b]thiophen-6-yl)acetamide], the half-inhibitory concentration (IC50) with MDA-MB-231 (setting [1]) and in the data set on MCF-7 (setting [2]) was greater than 10 µM in each case.

`CN(C)CCOc1ccc(Cl)cc1C(=O)Nc1ccc2c(c1)S(=O)(=O)C=C2` [HJC-3-69, 5-Chloro-2-(2-dimethylaminoethoxy)-N-(1,1-dioxo-1H-1λ^6-benzo[b]thiophen-6-yl) benzamide]: the IC50 with MDA-MB-231 (MDA-MB-231, 72 h) came out at 2.69 µM; in the data set with MCF-7 (setting [3]), 3.5 µM. The “inhibition on breast cancer cell proliferation (FIG. 1)” value (from here on “inhibition”) with MCF-7 (setting [4]) is given as “significant inhibition”.

`O=C(Nc1ccc2c(c1)S(=O)(=O)C=C2)c1cnc2ccccc2c1` [HJC-3-91, Quinoline-3-carboxylic acid (1,1-dioxo-1H-1λ^6-benzo[b]thiophen-6-yl)amide]: the IC50 in the data set on MDA-MB-231 (setting [1]) came out at 6.21 µM; in the data set on MCF-7 (setting [2]), 2.97 µM. Further, in the data set on MCF-7 (setting [4]), the “inhibition” value is listed as “significant inhibition”.

On to `O=C(Nc1ccc2c(c1)S(=O)(=O)C=C2)c1cc(Cl)ccc1OC1CCNCC1` [HJC-4-15, 5-Chloro-N-(1,1-dioxo-1H-1λ^6-benzo[b]thiophen-6-yl)-2-(piperidin-4-yloxy)benzamide], for which the IC50 in the data set with MDA-MB-231 (setting [1]) is 2.85 µM; with MCF-7 (setting [2]), 4.21 µM.

In the case of `CC(=O)Nc1ccc2c(c1)S(=O)(=O)C=C2` [HJC-1-62, N-(1,1-Dioxo-1H-1λ^6-benzo[b]thiophen-6-yl)acetamide], the IC50 in the data set on MDA-MB-231 (setting [1]) and with MCF-7 (setting [2]) was greater than 10 µM in each case.

Take `CC(=O)NCCOc1ccc(Cl)cc1C(=O)Nc1ccc([N+](=O)[O-])cc1Cl` [HJC-4-25, 2-(2-Acetylaminoethoxy)-5-chloro-N-(2-chloro-4-nitrophenyl)benzamide]: the IC50 in the data set with MDA-MB-231 (setting [1]) and in the data set with MCF-7 (setting [2]) was greater than 10 µM each time.

In the case of `O=C(Nc1ccc([N+](=O)[O-])cc1Cl)c1cc(Cl)ccc1OCCN1CCCCC1` [HJC-3-84, 5-Chloro-N-(2-chloro-4-nitrophenyl)-2-(2-piperidin-1-yl-ethoxy)benzamide], the half-maximal inhibitory concentration (IC50) with MDA-MB-231 (setting [1]) and in the data set on MCF-7 (setting [2]) was greater than 10 µM in each case.

For `CS(=O)(=O)N(c1ccc(NC(=O)c2cc(Cl)ccc2OC2CCNCC2)c(Cl)c1)S(C)(=O)=O` [HJC-4-35-1], the half-inhibitory concentration (IC50) in the data set with MDA-MB-231 (setting [1]) and in the data set on MCF-7 (setting [2]) was greater than 10 µM each time.

With `O=C(Nc1ccc2c(c1)S(=O)(=O)C=C2)c1cc(Cl)ccc1OCCBr` [HJC-3-77, 2-(2-Bromo-ethoxy)-5-chloro-N-(1,1-dioxo-1H-1λ^6-benzo[b]thiophen-6-yl)benzamide], the IC50 was greater than 10 µM in the data set with MDA-MB-231 (MDA-MB-231, 72 h) and greater than 10 µM in the data set on MCF-7 (setting [3]).

As to `O=C(Nc1ccc2c(c1)S(=O)(=O)C=C2)c1cccnc1` [HJC-3-76, N-(1,1-Dioxo-1H-1λ^6-benzo[b]thiophen-6-yl)-nicotinamide], the IC50 with MDA-MB-231 (MDA-MB-231, 72 h) was greater than 10 µM; with MCF-7 (setting [3]), 15.3 µM.

With `O=C(Nc1ccc([N+](=O)[O-])cc1Cl)c1cc(Cl)ccc1OCC(O)CO` (centres unmarked) [HJC-3-60, 5-Chloro-N-(2-chloro-4-nitrophenyl)-2-(2,3-dihydroxypropoxy)benzamide], the IC50 in the data set with MDA-MB-231 (setting [1]) and with MCF-7 (setting [2]) was greater than 10 µM throughout.

As to `CN1CCC(Oc2ccc(Cl)cc2C(=O)Nc2ccc3c(c2)S(=O)(=O)C=C3)CC1` [HJC-3-82, 5-Chloro-N-(1,1-dioxo-1H-1λ^6-benzo[b]thiophen-6-yl)-2-(1-methyl-piperidin-4-yloxy) benzamide], the IC50 in the data set on MDA-MB-231 (MDA-MB-231, 72 h) is 2.68 µM; in the data set with MCF-7 (setting [3]) it was 3.53 µM.

For `NCCCCOc1ccc(Cl)cc1C(=O)Nc1ccc([N+](=O)[O-])cc1Cl` [HJC-4-31, 2-(4-Aminobutoxy)-5-chloro-N-(2-chloro-4-nitrophenyl)benzamide], the values for the IC50 in the data set with MDA-MB-231 (setting [1]) and in the data set on MCF-7 (setting [2]) were 2.37 µM and 3.7 µM, respectively. Besides, the “inhibition” value in the data set on MCF-7 (setting [4]) is recorded as “significant inhibition”.

For the compound `CN(C)CCOc1ccc(Cl)cc1C(=O)Nc1ccc([N+](=O)[O-])cc1Cl` [HJC-3-57, 5-Chloro-N-(2-chloro-4-nitro-phenyl)-2-(2-dimethylamino-ethoxy)benzamide], the IC50 with MDA-MB-231 (MDA-MB-231, 72 h) was greater than 10 µM; in the data set on MCF-7 (setting [3]), greater than 10 µM.

Consider `N#CCC(=O)Nc1ccc2c(c1)S(=O)(=O)C=C2` [HJC-3-61, 2-Cyano-N-(1,1-dioxo-1H-1λ^6-benzo[b]thiophen-6-yl)acetamide], for which the IC50 with MDA-MB-231 (MDA-MB-231, 72 h) was greater than 10 µM; with MCF-7 (setting [3]) it was greater than 10 µM.

As to `O=C(Nc1ccc([N+](=O)[O-])cc1Cl)c1cc(Cl)ccc1OCCF` [HJC-3-98, 5-Chloro-N-(2-chloro-4-nitro-phenyl)-2-(2-fluoro-ethoxy)benzamide], the IC50 is greater than 10 µM with MDA-MB-231 (MDA-MB-231, 72 h) and greater than 10 µM in the data set on MCF-7 (setting [3]).
